Results as given in PMC6270814, “Effects of Ursolic Acid Derivatives on Caco-2 Cells and Their Alleviating Role in Streptozocin-Induced Type 2 Diabetic Rats” (Molecules, 2014).

Experiments:
[1] = tested on: STZ-induced diabetic rats; assay: Oxidative stress markers (GSH, SOD, MDA) in liver and kidney of STZ-induced diabetic rats; type: in vivo, rat; conditions: 4 weeks
Procedure: (§1) Diabetes was induced by a single intraperitoneal injection of streptozotocin (Sigma-Aldrich, St. Louis, MO, USA) at a dose of 65 mg/kg body weight. STZ was dissolved in 0.1 M cold citrate buffer, pH 4.5. Control group were injected with citrate buffer alone. After 7 days for the development of diabetes, plasma glucose levels were determined of each rat. Rats with fasting blood glucose (FBG) range of above 16.7 mmol/L were considered as DM rats and were used for further study.
(§2) According to the body weight and plasma glucose levels the rats were divided randomly into seven groups with six rats each and treated as follows: • Group I: Normal rats treated with 0.5% CMC-Na (2 mL/200 g body weight). • Group II: Diabetic rats treated with 0.5% CMC-Na. • Group III: Diabetic rats treated with 10 mg/kg of glibenclamide. • Group IV: Diabetic rats treated with 100 mg/kg of compound 1 (UA). • Group V: Diabetic rats treated with 100 mg/kg of compound 10. • Group VI: Diabetic rats treated with 100 mg/kg of compound 11. • Group VII: Diabetic rats treated with 100 mg/kg of compound 12.
(§3) The treatment was continued daily for 28 days. Blood glucose levels and body weight were measured every week to ascertain the status of diabetes. After 4 weeks of treatment, the animals were fasted for 12 h and sacrificed by cervical dislocation under mild anaesthetization, blood was collected into heparinized tubes and centrifuged at 2,000 rpm for 10 min. Livers and kidneys were removed, washed and homogenized in ice-cold normal saline. This homogenates were centrifuged at 3,000 rpm for 10 min at 4 °C, and the supernatants were collected for the estimate of antioxidant markers.
The tissue homogenates of liver and kidney were used for the estimate of antioxidant markers. Glutathione (GSH) level was measured with 5, 5'-dithiobis-(2-nitrobenzoic acid) (DTNB) as described by Sedlak and Lindsay. Superoxide dismutase (SOD) activity was assessed according to the method of Sinha. Malondialdehyde (MDA) activity was estimated with the thiobarbituric acid method.

GLUT-2 = assay: Western blot of GLUT-2 protein expression in Caco-2 cells; type: cell-based, Human; conditions: 100 μM, 6 h
Procedure: Caco-2 cells were cultured on 6-well plates at a density of 1 × 10^6 cells/well for 13 days. The cells were placed in serum-free medium for 24 h prior to the treatment. Then UA and its derivatives (100 μM) were added, after 6 h incubation, the cells were immediately washed three times with ice-cold PBS and lysed in 200 μL lysis buffer. Cells were allowed to lyse on ice, and then scraped, vortexed, sonicated and stored at −80 °C for further analysis. Protein concentrations were determined as described and cell lysate was subjected to western blot analysis. Briefly, proteins with same amount were denatured in sample buffer, separated on 8% SDS-PAGE gel, and transferred onto a polyvinylidene diflouride membrane. The membranes were blocked for 1 h at 37 °C with 10% defatted milk in Tris-buffered saline (10 mM Tris-HCl, pH 7.5 and 137 mM NaCl) containing 0.05% Tween 20 (TBST). Membranes were then incubated overnight at 4 °C in blocking buffer with antibodies for GLUT-2, SGLT-1 and β-actin (EMD, Millipore, Billerica, MA, USA). Membranes were washed with TBST and incubated 1 h with appropriate secondary antibodies. Revelation was performed by using the enhanced chemiluminescence reagent and blue-light sensitive film. Densitometric analysis of films was performed with a Hewlett-Packard scanner equipped with a transparent adaptor and UN-SCAN-IT software.

[2] = tested on: STZ-induced diabetic rats; assay: Serum biochemical parameters (insulin, total protein, albumin) in STZ-induced diabetic rats; type: in vivo, rat; conditions: 4 weeks, compounds 100 mg/kg, glibenclamide 10 mg/kg
Procedure: as §1, §2, §3
(§4) Fasting blood glucose levels were estimated on days 0, 7, 14, 28 with the single touch glucometer (Life Scan, Johnson & Johnson Company, New Brunswick, NJ, USA). Serum insulin level was measured by use of a commercial immunoassay kit by enzyme linked immunosorbent assay (Uscn. Life Science Inc., Wuhan, China). Serum total protein, albumin, triglycerides (TG), total cholesterol (TC), high-density lipoprotein cholesterol (HDL-C), and low-density lipoprotein cholesterol (LDL-C) were measured with an automatic biochemical analyzer (Sinnowa D240, Nanjing, China).

[3] = tested on: STZ-induced diabetic rats; assay: Fasting blood glucose in STZ-induced diabetic rats, 4 weeks treatment; type: in vivo, rat
Procedure: Adult male albino rats of Sprague-Dawley rats (180–220 g) were obtained from the Guangdong Medical Lab Animal Center, and maintained under standard laboratory conditions in a temperature (25–30 °C) and light-controlled (12-h light/dark cycle) room with 35%–60% humidity. The animals were acclimatized for 10 days before the experiments and provided with rodent chow and water ad libitum. The investigation was conducted in accordance with the Guide for the Care and Use of Laboratory Animals and approved by the institutional Animal Ethics Committee.
as §1, §2, §3, §4

[4] = tested on: STZ-induced diabetic rats; assay: Serum lipid profile (TG, TC, LDL-C, HDL-C) in STZ-induced diabetic rats; type: in vivo, rat; conditions: 4 weeks, compounds 100 mg/kg, glibenclamide 10 mg/kg
Procedure: as §1, §2, §3, §4

CCC(=O)O[C@H]1CC[C@@]2(C)C(CC[C@]3(C)C2CC=C2C4[C@@H](C)[C@H](C)CC[C@]4(C(=O)O)CC[C@]23C)C1(C)C (stereo partly drawn) [Compound 10]
SOD level in the liver and kidney ([1]; liver and kidney of STZ diabetic rats): great improvement | GSH level in liver ([1]; liver of STZ diabetic rats): significant effects | MDA level in the liver ([1]; liver of STZ diabetic rats, daily administration): obviously down-regulated | effect on expression of protein GLUT-2 (GLUT-2): significant effects on reducing | serum albumin level vs diabetic control [2]: increased significantly | serum insulin level vs diabetic control [2]: increased significantly | serum total protein level vs diabetic control [2]: increased significantly | Fasting Blood Glucose Level, Week 0 ([3]; STZ diabetic rats, Week 0 (before treatment), compounds 100 mg/kg, glibenclamide 10 mg/kg, n = 6): 320.40 ± 12.96 mg/dL | Fasting Blood Glucose Level, Week 1 ([3]; STZ diabetic rats, Week 1, compounds 100 mg/kg, glibenclamide 10 mg/kg daily, n = 6): 270.00 ± 16.74 mg/dL | Fasting Blood Glucose Level, Week 2 ([3]; STZ diabetic rats, Week 2, compounds 100 mg/kg, glibenclamide 10 mg/kg daily, n = 6): 286.20 ± 18.90 mg/dL | Fasting Blood Glucose Level, Week 3 ([3]; STZ diabetic rats, Week 3, compounds 100 mg/kg, glibenclamide 10 mg/kg daily, n = 6): 234.00 ± 14.58 mg/dL | Fasting Blood Glucose Level, Week 4 ([3]; STZ diabetic rats, Week 4, compounds 100 mg/kg, glibenclamide 10 mg/kg daily, n = 6): 225.00 ± 11.70 mg/dL | decrease in blood glucose levels as compared with diabetic control ([3]; end of the 4 week treatment, compound 10 100 mg/kg, glibenclamide 10 mg/kg): 49.6% | serum TC level vs diabetic control [4]: significantly decreased | serum TG level vs diabetic control [4]: significantly decreased
